Measured values reported in publication PMC8175350, “Drug repurposing screens identify chemical entities for the development of COVID-19 interventions” (Nature Communications, 2021).
Where a name gives a salt, the structure may show the parent alone. Read-outs that look alike come from different tables or passages of the source.

Experiments:
SARS-CoV-2 [1] = experiment: microbe, parasite or virus in culture; type: cell-based
[2] = Uninfected HeLa-ACE2 24 h live/dead cytotoxicity counter screen; type: cell-based, human; details: human, uninfected HeLa-ACE2 cells
HeLa-ACE2 cells [3] = experiment: as above; type: cell-based, human
SARS-CoV-2 [4] = experiment: microbe, parasite or virus in culture; type: cell-based; details: for Emax: Severe acute respiratory syndrome coronavirus 2, Calu-3, 48 h, read-out: Calu-3 CoV-2 Sinf Average
SARS-CoV-2 [5] = experiment: microbe, parasite or virus in culture; type: cell-based; details: for Emax: Severe acute respiratory syndrome coronavirus 2, HeLa-ACE2, 10 h, read-out: HeLa-ACE2 TOA CoV-2 Sinf Average; for EC50: read-out: HeLa-ACE2 TOA CoV-2 EC50 GeoMean
HeLa-ACE2 cells [6] = experiment: Total cell count in the HeLa-ACE2 TOA assay; type: cell-based; details: Homo sapiens; for Emax: HeLa-ACE2, 10 h, curve plateau at infinite concentration, read-out: HeLa-ACE2 TOA cell count Sinf Average; for EC50: HeLa-ACE2, read-out: HeLa-ACE2 TOA cell count EC50 GeoMean
Text: Supplement 41467_2021_23328_MOESM3_ESM.xlsx, sheet "Table S1" | column: HeLa-ACE2 TOA cell count

HeLa-ACE2 cells [7] = experiment: cells; details: Homo sapiens; for Emax: HeLa-ACE2, 24 h, read-out: HeLa-ACE2 cell count Sinf Average; for EC50: HeLa-ACE2, read-out: HeLa-ACE2 cell count EC50 GeoMean
Calu-3 cells [8] = experiment: cells; details: Homo sapiens; for Emax: Calu-3, 48 h, read-out: Calu-3 cell count Sinf Average; for EC50: Calu-3, read-out: Calu-3 cell count EC50 GeoMean
[9] = HepG2 72 h CellTiter-Glo cytotoxicity; details: human, HepG2 cells
HepG2 [10] = experiment: HepG2 72 h CellTiter-Glo cytotoxicity; details: 72 h
[11] = HEK293T 72 h CellTiter-Glo cytotoxicity; details: human, HEK293T cells
HEK293T [12] = experiment: HEK293T 72 h CellTiter-Glo cytotoxicity; details: 72 h
[13] = Uninfected Calu-3 48 h Cell-Titer Glo cytotoxicity counter screen; details: human, uninfected Calu-3 cells
Calu-3 cells [14] = experiment: as above
Calu-3 cells [15] = details: for Calu-3 uninfected cytotoxicity Sinf Average: human
HepG2 [16] = details: human
HEK293T [17] = details: human
in vitro = details: human
SARS-CoV-2 [18] = type: cell-based; details: combination with remdesivir, synergy score δ
[19] = Severe acute respiratory syndrome coronavirus 2, HeLa-ACE2, 24 h, curve plateau at infinite concentration; read-out: HeLa-ACE2 CoV-2 Sinf Average
[20] = Severe acute respiratory syndrome coronavirus 2, HeLa-ACE2, detail column; read-out: HeLa-ACE2 CoV-2 EC50 GeoMean
[21] = read-out: HeLa-ACE2 uninfected cytotoxicity CC50 GeoMean
[22] = curve plateau at infinite concentration
[23] = Severe acute respiratory syndrome coronavirus 2, Calu-3, detail column, read-out: Calu-3 CoV-2 EC50 GeoMean
[24] = Severe acute respiratory syndrome coronavirus 2, HeLa-ACE2
[25] = Calu-3 uninfected cytotoxicity CC50 GeoMean
[26] = Severe acute respiratory syndrome coronavirus 2, HeLa-ACE2; read-out: HeLa-ACE2 CoV-2 EC50 GeoMean
[27] = Severe acute respiratory syndrome coronavirus 2, Calu-3, read-out: Calu-3 CoV-2 EC50 GeoMean
[28] = Severe acute respiratory syndrome coronavirus 2, HeLa-ACE2, detail column

Row | SMILES | Emax (SARS-CoV-2 [1]; [19]) [%] | EC50 (SARS-CoV-2 [1]; [20]) [µM] | CC50 at 24 h [2, 21] [µM] | HeLa-ACE2 uninfected cytotoxicity Sinf Average (HeLa-ACE2 cells [3]; [22]) [%] | Emax (SARS-CoV-2 [4]; [22]) [%] | EC50 (SARS-CoV-2 [4]; [23]) [µM] | Emax (SARS-CoV-2 [5]; [22]) [%] | EC50 (SARS-CoV-2 [5]; [24]) [µM] | Emax (HeLa-ACE2 cells [6]) [%] | EC50 (HeLa-ACE2 cells [6]) [µM] | Emax (HeLa-ACE2 cells [7]) [%] | EC50 (HeLa-ACE2 cells [7]) [µM] | Emax (Calu-3 cells [8]) [%] | EC50 (Calu-3 cells [8]) [µM] | CC50 at 72 h [9] [µM] | HepG2 72-hour cytotoxicity Sinf Average (HepG2 [10]) [%] | CC50 at 72 h [11] [µM] | HEK293T 72-hour cytotoxicty Sinf Average (HEK293T [12]) [%] | CC50 at 48 h [13, 25] [µM] | Calu-3 uninfected cytotoxicity Sinf Average (Calu-3 cells [14]; [22]) [%] | further results
1 | COc1cc2c(Nc3ccc(Cl)c(Cl)c3F)ncnc2cc1OC[C@@H]1C[C@@H]2CN(C)C[C@@H]2C1 [Tesevatinib, XL647, Kadmon Corporation] | 101 | 2.44 | > 20.6 | -100 | 100 | 3.32 | 100 | > 7.61 | -100 | > 9.59 | 100 | > 8.16 | -100 | > 9.97 | 3.15 | -103 | 2.67 | -102 | 3.52 | -105 | –
2 | CN1CC2c3ccccc3Oc3ccc(Cl)cc3C2C1 (stereo not shown) [Asenapine maleate] | 97 | – | – | -100 | 100 | – | 100 | – | – | – | – | – | – | – | 19.9 | -100 | 23.3 | -100 | – | -100 | CC50 at 24 h ([2]; detail block, read-out: HeLa-ACE2 uninfected cytotoxicity CC50 GeoMean): > 35.6 µM; CC50 at 48 h [13]: > 29.9 µM
3 | C[C@H]1O[C@@H](O[C@H]2[C@@H](O)C[C@H](O[C@H]3[C@@H](O)C[C@H](O[C@H]4CC[C@@]5(C)[C@H](CC[C@@H]6[C@@H]5C[C@@H](O)[C@]5(C)[C@@H](C7=CC(=O)OC7)CC[C@]65O)C4)O[C@@H]3C)O[C@@H]2C)C[C@H](O)[C@@H]1O [Digoxin] | 100 | – | 0.12 | -98 | 83 | – | 89 | – | – | > 9.59 | 101 | 0.325 | -100 | > 9.95 | – | – | – | – | – | – | EC50 (SARS-CoV-2 [1]; [26]): 0.166 µM; EC50 (SARS-CoV-2 [4]; [27]): 0.169 µM; EC50 (SARS-CoV-2 [5]; [28]): 0.792 µM; Calu-3 uninfected cytotoxicity Sinf Average (Calu-3 cells [15]): -38%; HepG2 72-hour cytotoxicity Sinf Average (HepG2 [16]): -102%; HEK293T 72-hour cytotoxicty Sinf Average (HEK293T [17]): -101%; CC50 (in vitro; [25]): > 5.04 µM
4 | CNC(=O)c1cc(Oc2ccc(NC(=O)Nc3ccc(Cl)c(C(F)(F)F)c3)cc2)ccn1 [Sorafenib] | 100 | – | > 8.65 | -99 | 100 | – | 99 | – | 100 | > 9.61 | 100 | > 8.31 | 100 | > 9.36 | 7.15 | -101 | 3.34 | -107 | – | -88 | EC50 (SARS-CoV-2 [1]; [26]): > 5.67 µM; EC50 (SARS-CoV-2 [4]; [27]): > 5.2 µM; EC50 (SARS-CoV-2 [5]; [28]): 3.51 µM; CC50 at 48 h [13]: 5.3 µM
5 | CCCCc1oc2ccccc2c1C(=O)c1cc(I)c(OCCN(CC)CC)c(I)c1 [Amiodarone] | – | – | – | – | – | – | – | – | – | – | 100 | – | 100 | – | – | -100 | 10.9 | -100 | – | – | Emax (SARS-CoV-2 [1]; Severe acute respiratory syndrome coronavirus 2, HeLa-ACE2, 24 h, read-out: HeLa-ACE2 CoV-2 Sinf Average): 96%; HeLa-ACE2 uninfected cytotoxicity Sinf Average (HeLa-ACE2 cells [3]; human, uninfected HeLa-ACE2 cells, 24 h): -101%; Emax (SARS-CoV-2 [4]): 100%; Emax (SARS-CoV-2 [5]): 100%
6 | COc1ccc(C[C@H](N)C(=O)N[C@H]2[C@@H](O)[C@H](n3cnc4c(N(C)C)ncnc43)O[C@@H]2CO)cc1 [Puromycin - cytotoxicity control] | 100 | 0.48 | 0.658 | -100 | 97 | 2.74 | 103 | 0.316 | – | > 9.62 | 101 | 1.55 | -100 | > 10 | 1.08 | -101 | 0.829 | -101 | 3.95 | -101 | –
7 | Nc1ncnc2c1nc(Cl)n2[C@@H]1O[C@H](CO)[C@@H](O)[C@H]1O [8-Chloroadenosine] | 98 | – | > 11.9 | -87 | 96 | 4.94 | 98 | 1.07 | 100 | > 9.59 | – | > 9.59 | 99 | > 9.98 | – | – | – | – | – | – | EC50 (SARS-CoV-2 [1]; Severe acute respiratory syndrome coronavirus 2, HeLa-ACE2, reconfirmed hits; read-out: HeLa-ACE2 SARS-CoV-2 EC50): 0.927 µM; CC50 at 24 h ([2]; reconfirmed hits, read-out: HeLa-ACE2 Uninf. cells CC50): > 11.9 µM; EC50 (SARS-CoV-2 [4]; Severe acute respiratory syndrome coronavirus 2, Calu-3, reconfirmed hits, read-out: Calu-3 SARS-CoV-2 EC50): 4.94 µM; uninfected Calu-3 CC50 (Calu-3 cells [15]): > 27.747 ×÷ 1.135 (n=3) μM; Calu-3 uninfected cytotoxicity Sinf Average (Calu-3 cells [15]; 48 h): -92%; HepG2 72-hour cytotoxicity Sinf Average (HepG2 [16]; 72 h): -69%; HEK293T 72-hour cytotoxicty Sinf Average (HEK293T [17]; 72 h): -98%; CC50 at 48 h (in vitro; Calu-3 Uninf. cells CC50 (µM)): > 27.8 µM; CC50 at 48 h (in vitro; [25]): > 27.7 µM
8 | NC1(c2ccc(-c3nc4ccn5c(=O)[nH]nc5c4cc3-c3ccccc3)cc2)CCC1 [MK-2206] | 99 | 1.1 | > 22.8 | -100 | 82 | > 4.9 | 100 | > 9.39 | – | > 9.59 | – | > 9.59 | -100 | > 9.98 | 7.59 | -100 | 3.88 | -102 | 8.7 | -100 | SI in Calu-3 (SARS-CoV-2 [4]): < 2; EC50 ratio between the standard 24 h and the TOA assay (SARS-CoV-2 [5]): > 8; HeLa-ACE2 synergy score with remdesivi [δ] (SARS-CoV-2 [18]): 2.087
9 | Cc1ccc(NC(=O)c2ccc(CN3CCN(C)CC3)cc2)cc1Nc1nccc(-c2cccnc2)n1 [Imatinib mesylate] | – | – | – | – | – | – | – | – | – | – | – | – | 100 | – | 12.9 | -100 | 15.2 | -100 | > 29.9 | – | Emax (SARS-CoV-2 [1]; Severe acute respiratory syndrome coronavirus 2, HeLa-ACE2, 24 h; read-out: HeLa-ACE2 CoV-2 Sinf Average): 100%; Emax (SARS-CoV-2 [4]): 100%; Calu-3 uninfected cytotoxicity Sinf Average (Calu-3 cells [14]; human, uninfected Calu-3 cells, 48 h): -100%
10 | COc1ccc2c(c1)[C@]1(C[C@H]1c1ccc3c(/C=C/c4ccc(CN5C[C@@H](C)O[C@@H](C)C5)cc4)n[nH]c3c1)C(=O)N2 [CFI-400945] | 100 | > 7 | 7.18 | -100 | 100 | 3.36 | 100 | 4.57 | 100 | > 9.59 | 53 | > 0.117 | 100 | 4.75 | – | – | – | – | – | – | uninfected Calu-3 CC50 (Calu-3 cells [15]): > 19.756 ×÷ 1.816 (n=3) μM; Calu-3 uninfected cytotoxicity Sinf Average (Calu-3 cells [15]; 48 h): -98%; HepG2 72-hour cytotoxicity Sinf Average (HepG2 [16]; 72 h): -100%; HEK293T 72-hour cytotoxicty Sinf Average (HEK293T [17]; 72 h): -95%; CC50 at 48 h (in vitro; [25]): > 19.8 µM
